Patent US9085795B2, “Methods for screening candidate agents for modulating prorenin and renin, assays for detecting prorenin and antibodies” (MOLECULAR INNOVATIONS, INC., priority 2009, dated 2015)
Values joined by “and” are separate entries in the source; they are usually repeats but may differ in a detail not shown here. Equal values may be shown once. Read-outs that look alike come from different tables or passages of the source. No end group written: not given here. *: point of attachment. Biotin = O=C1N[C@H]2[C@H](CS[C@H]2CCCCC(=O)*)N1

Assays:
renin = biological target: T1, renin (Homo sapiens, UniProt P00797); assay: Renin activity assay: cleavage of biotin-[…] by renin, detected with the antibody of the invention on avidin-coated plate; type: biochemical; settings: Renin at 10 ug/ml, aliskiren at 10X excess molar conc.
T1 construct: Renin is produced by cleavage of the 395 amino acid zymogen prorenin
T1 sequence (P00797 67-406): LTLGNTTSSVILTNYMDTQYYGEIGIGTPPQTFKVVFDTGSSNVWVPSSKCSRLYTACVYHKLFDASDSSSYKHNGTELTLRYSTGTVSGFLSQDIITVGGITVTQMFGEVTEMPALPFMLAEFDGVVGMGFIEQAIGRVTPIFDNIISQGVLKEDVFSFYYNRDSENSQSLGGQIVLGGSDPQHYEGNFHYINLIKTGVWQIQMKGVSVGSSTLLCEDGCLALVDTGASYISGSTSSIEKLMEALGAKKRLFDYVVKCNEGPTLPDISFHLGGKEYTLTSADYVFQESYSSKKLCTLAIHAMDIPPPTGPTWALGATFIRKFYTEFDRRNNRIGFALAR
Experimental: In accordance with the invention, renin was preincubated in the presence and absence of aliskiren, a known renin inhibitor for approximately 2 hours at 37° C. in 50 mM HEPES, 2 mM EDTA, 1% DMA, 0.5% BSA, pH 7.0. This mixture of renin +/−aliskiren was then contacted with biotin-[…] and incubated at 37° C. for approximately eighteen hours. The reaction mixture was then added to an avidin-coated microtiter plate and allowed to adhere thereto for 30 minutes at room temperature and then washed three times with wash buffer, containing 10 mM Tris, 150 mM NaCl, 0.1% BSA and 0.05% Tween. Then 100 μl of the antibody of the invention was added to each well of the microtiter plate and incubated for 30 minutes at room temperature and again washed with wash buffer. Then 100 μl of horse radish peroxidase conjugated goat anti-mouse subclass Fc was added to each well, incubated for 30 minutes at room temperature and washed with wash buffer. Then 100 μl of TMB ONE Solution™, available from Promega Corporation of Madison, Wis., was added to all wells, incubated for five minutes at room temperature. The reaction was stopped with 50 μl 1N H2SO4 and read at 450 nm.

[1] = system: monoclonal antibody 4B5-E3; settings: peptides bound to avidin coated plates at 1 μg/ml, absorbance at 450 nm
Experimental: Cell supernatants were loaded on an IMMULON™ (Thermo Fisher Scientific Inc., Waltham, Mass.) strip plate coated with prorenin and blocked. […] Strips were then washed three times, and developed with TMB 1 (Kirkegaard & Perry Laboratories, Inc., Gaithersburg, Md.) substrate for 5 minutes; solution was quenched with 1N H2SO4. The IMMULON™ plate was read on a microtiter plate spectrophotometer with a set absorbance at 450 nm. Optical density (OD) measurements higher than 3.0 were considered positive clones.
These four peptides were bound to avidin coated plates at a concentration of 1 μg/ml and purified monoclonal 4B5-E3 binding was determined per the screening procedure described earlier.

Compound | binding of peptide to monoclonal antibody 4B5-E3 [1] | further results
COCCCOc1cc(C[C@@H](C[C@H](N)[C@@H](O)C[C@H](C(=O)NCC(C)(C)C(N)=O)C(C)C)C(C)C)ccc1OC [aliskiren] |  | inhibition of cleavage of the substrate peptide by renin (renin): inhibition of cleavage of the substrate peptide by renin; signal read at 450 nM (uncleaved substrate peptide), renin + inhibitor (renin; preincubated approximately 2 hours at 37° C., substrate approximately eighteen hours): 3.363 and 3.481 and 3.596 and 3.824 and 3.754 and 3.497
Biotin-ARLGPEW [Peptide 4.6] | does not bind monoclonal | 
Biotin-ARLGPEWS [Peptide 4.5] | binds monoclonal | binding of peptide to monoclonal antibody 4B5-E3 ([1]; listed as ARLGPEWS): bound to the monoclonal antibody
Biotin-ARLGPEWSQ [Peptide 4.4] | binds monoclonal | binding of peptide to monoclonal antibody 4B5-E3 ([1]; listed as ARLGPEWSQ): bound to the monoclonal antibody
Biotin-ARLGPEWSQPMKR [Peptide 4.1] | Biotin-ARLGPEWSQPMKR (binds monoclonal) | 
Biotin-GVDMARLGPEWSQPMKR [Peptide 4] | Biotin-GVDMARLGPEWSQPMKR (binds monoclonal) | binding of peptide to monoclonal antibody 4B5-E3 ([1]; listed as peptide 4): positive result
Biotin-LGPEWSQPMKR [Peptide 4.3] | Biotin-LGPEWSQPMKR (does not bind monoclonal) | 
Biotin-RLGPEWSQPMKR [Peptide 4.2] | Biotin-RLGPEWSQPMKR (binds monoclonal) | 
